Where “and” joins values, the source holds several entries; their conditions need not be identical. Equal entries are not always repeated. Where two headings read alike, the source gives them in different places.
Assays:
human recombinant GCL = human recombinant GCL (Homo sapiens (Human), UniProt P48506); assay: GCL enzyme profiling assay (ADP-Glo luminescence); type: biochemical
Procedure, shortened: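 ADP-Glo luminescence readout; 5 nM enzyme preincubated 1 h at 22 °C with 0.6 mM ATP, then started with 1 mM glutamate and 1.2 mM α-aminobutyrate, stopped after 2 h. Buffer: HEPES pH 7.5, MgCl2, DTT, BSA, 0.2% F-127, 1% DMSO. IC50 from four-parameter logistic fit.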

RKN cells = assay: RKN cell profiling assay (cell viability, CellTiter-Glo); type: cell-based
Procedure, shortened: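 Cells seeded at 1,000/well in F-12 with 10% FBS, left to adhere 24 h, then compound-treated for 96 h at 0.5% final DMSO. Viability by CellTiter-Glo luminescence; EC50 from four-parameter logistic fit. Ferroptosis rescue runs included 1.5 μM ferrostatin-1 added at seeding.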

[1] = human recombinant GCL, ADP-Glo, read-out: GCL IC50
[2] = cell viability, read-out: Cell Killing EC50
[3] = human recombinant GCL 5 nM, 1 h preincubation with ATP, read-out: GCL IC50
[4] = 96 h, 96 h exposure, read-out: Cell Killing EC50
[5] = human recombinant GCL 5 nM, 1 h preincubation with ATP, read-out: GCL IC50 (mM), individual values in parentheses

Sequence of human recombinant GCL (P48506 whole entry): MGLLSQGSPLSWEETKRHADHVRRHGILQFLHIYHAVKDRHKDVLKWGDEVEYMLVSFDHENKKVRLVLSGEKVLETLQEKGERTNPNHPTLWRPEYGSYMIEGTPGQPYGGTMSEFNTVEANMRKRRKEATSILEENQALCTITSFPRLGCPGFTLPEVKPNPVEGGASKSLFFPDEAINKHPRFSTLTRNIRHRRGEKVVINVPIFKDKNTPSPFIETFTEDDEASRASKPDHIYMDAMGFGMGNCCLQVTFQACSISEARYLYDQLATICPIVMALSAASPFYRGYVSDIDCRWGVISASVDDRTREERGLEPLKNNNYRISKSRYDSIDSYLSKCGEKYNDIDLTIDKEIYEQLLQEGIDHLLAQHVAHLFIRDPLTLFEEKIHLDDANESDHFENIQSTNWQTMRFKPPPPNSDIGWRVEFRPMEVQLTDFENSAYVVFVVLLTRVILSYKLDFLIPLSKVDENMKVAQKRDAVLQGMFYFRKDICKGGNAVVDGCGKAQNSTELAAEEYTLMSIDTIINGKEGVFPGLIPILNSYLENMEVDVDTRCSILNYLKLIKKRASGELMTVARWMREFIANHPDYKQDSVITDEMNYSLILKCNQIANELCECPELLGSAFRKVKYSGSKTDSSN

Structure (SMILES)	IC50 (human recombinant GCL; [1])	IC50 (human recombinant GCL; [3])	EC50 (RKN cells; [2])	EC50 (RKN cells; [4])	further results
COC(=O)[C@@H](N)CCS(=N)(=O)CCc1nnn[nH]1 (stereo partly drawn) [Compound 69, (2S)-methyl 4-(2-(1H-tetrazol-5-yl)ethylsulfonimidoyl)-2-aminobutanoate]	–	> 2 mM	–	≥ 1 mM	–
N=S(=O)(CCc1nc(-c2ccccc2)cs1)CC[C@H](N)C(=O)O (stereo partly drawn) [Compound 17]	–	0.02 to 2 mM	–	≥ 1 mM	–
COc1ccc(CCS(=N)(=O)CC[C@H](N)C(=O)O)cc1 (stereo partly drawn) [Compound 12]	–	0.02 to 2 mM	–	≥ 1 mM	–
CC(C)(CCS(=N)(=O)CC[C@H](N)C(=O)O)c1ccccc1Cl (stereo partly drawn) [Compound 66]	–	0.02 to 2 mM	–	≥ 1 mM	–
N=S(=O)(CC[C@H](N)C(=O)O)CC(=O)C1CCCC1 (stereo partly drawn) [Compound 136, (2S)-2-amino-4-(2-cyclopentyl-2-oxoethylsulfonimidoyl)butanoic acid]	–	0.02 to 2 mM	–	≥ 1 mM	–
Cc1cccc(Cl)c1CCS(=N)(=O)CC[C@H](N)C(=O)O (stereo partly drawn) [Compound 42]	–	0.02 to 2 mM	–	≥ 1 mM	–
N#Cc1ccccc1CCS(=N)(=O)CC[C@H](N)C(=O)O (stereo partly drawn) [Compound 30]	–	≤ 0.02 mM	–	≥ 1 mM	–
Cc1ccc(Cl)c(CCS(=N)(=O)CC[C@H](N)C(=O)O)c1 (stereo partly drawn) [Compound 39]	–	≤ 0.02 mM	–	≥ 1 mM	–
N=S(=O)(CCc1cccs1)CC[C@H](N)C(=O)O (stereo partly drawn) [Compound 48]	–	≤ 0.02 mM	–	≥ 1 mM	–
N=S(=O)(CCc1ccncc1)CC[C@H](N)C(=O)O (stereo partly drawn) [Compound 6]	–	> 2 mM and 0.02 to 2 mM	–	≥ 1 mM	IC50 (human recombinant GCL; [5]): 2.27 mM and > 1.62 mM
N=S(=O)(CCCC(F)(F)F)CC[C@H](N)C(=O)NC1CC1 (stereo partly drawn) [Compound 130]	–	> 2 mM and 0.02 to 2 mM	–	< 1 mM	IC50 (human recombinant GCL; [5]): > 10 mM and 1.73 mM
CC(C)(C)CC[S@](=N)(=O)CC[C@H](N)C(=O)Nc1cccnc1 (single isomer, unassigned) [Compound 103]	–	> 2 mM	–	< 1 mM	–
N=S(=O)(CCc1cccc2ccccc12)CC[C@H](N)C(=O)O (stereo partly drawn) [Compound 31]	–	≤ 0.02 mM	–	≥ 1 mM	–
CCCCS(=O)(CC[C@H](N)C(=O)OC)=NC(C)=O (stereo partly drawn) [Compound 197, (2S)-methyl 4-(N-acetylbutylsulfonimidoyl)-2-aminobutanoate]	–	> 2 mM	–	≥ 1 mM	–
CCCCS(=N)(=O)CC[C@H](NC(=O)OC)C(=O)OC (stereo partly drawn) [Compound 198, (2S)-methyl 4-(butylsulfonimidoyl)-2-((methoxycarbonyl)amino)butanoate]	–	> 2 mM	–	≥ 1 mM	–
N=S(=O)(CCc1cccc(F)c1)CC[C@H](N)C(=O)O (stereo partly drawn) [Compound 24]	–	≤ 0.02 mM	–	≥ 1 mM	–
N=S(=O)(CC[C@H](N)C(=O)O)C[C@H](O)c1ccccc1 (stereo partly drawn) [Compound 46]	–	0.02 to 2 mM	–	≥ 1 mM	–
N=S(=O)(CC[C@H](N)C(=O)O)CCC1(CO)CCC1 (stereo partly drawn) [Compound 182]	–	0.02 to 2 mM	–	< 1 mM	–
CCCCOC(=O)[C@@H](N)CCS(=N)(=O)CCC(C)(C)C (stereo partly drawn) [Compound 72, (2S)-butyl 2-amino-4-(3,3-dimethylbutylsulfonimidoyl)butanoate]	–	0.02 to 2 mM	–	< 1 mM	–
COC(=O)[C@@H](N)CCS(=N)(=O)CCc1ccccc1 (stereo partly drawn) [Compound 68, (2S)-methyl 2-amino-4-(2-phenylethylsulfonimidoyl)butanoate]	–	0.02 to 2 mM	–	≥ 1 mM	–
N=S(=O)(CCc1ccccc1C(F)(F)F)CC[C@H](N)C(=O)O (stereo partly drawn) [Compound 15]	–	≤ 0.02 mM	–	≥ 1 mM	EC50 (RKN cells; 96 h, 96 h exposure, read-out: Cell Killing EC50 (mM), individual values in parentheses): 1.2 mM; EC50 (RKN cells; 96 h exposure, read-out: Cell Killing EC50 (mM), individual values in parentheses): 0.97 mM
CC(C)(C)CCS(=N)(=O)CC[C@H](N)C(=O)NC1CCOCC1 (stereo partly drawn) [Compound 120]	–	> 2 mM	–	< 1 mM	–
Cc1cccc(C(C)(C)CCS(=N)(=O)CC[C@H](N)C(=O)O)c1 (stereo partly drawn) [Compound 57]	–	0.02 to 2 mM	–	≥ 1 mM	–
N=S(=O)(CCc1ccccc1O)CC[C@H](N)C(=O)O (stereo partly drawn) [Compound 21]	–	≤ 0.02 mM	–	< 1 mM	–

Now from value to compound, other results behind:

IC50 (human recombinant GCL; [1])	IC50 (human recombinant GCL; [3])	Structure (SMILES)	EC50 (RKN cells; [2])	EC50 (RKN cells; [4])	further results
≤ 0.02 mM	–	C[C@](O)(CCS(=N)(=O)CC[C@H](N)C(=O)O)C(F)(F)F (single isomer, unassigned) [Compound 324]	< 1 mM	–	–
≤ 0.02 mM	–	N=S(=O)(CC[C@H](N)C(=O)O)CCC(O)(c1ccc(NC(=O)c2ccsc2)cc1)C(F)(F)F (stereo partly drawn) [Compound 446]	< 1 mM	–	–
0.02 to 2 mM	–	N=S(=O)(CC[C@H](N)C(=O)O)CCC(O)(Cc1ccccc1)C(F)(F)F (stereo partly drawn) [Compound 354]	≥ 1 mM	–	–
–	> 2 mM	N=S(=O)(CCCC(F)(F)F)CC[C@H](N)c1ncon1 (stereo partly drawn) [Compound 203, (1S)-1-(1,2,4-oxadiazol-3-yl)-3-(4,4,4-trifluorobutylsulfonimidoyl)propan-1-amine]	–	≥ 1 mM	–
≤ 0.02 mM	–	Cc1cc(-c2ccc(C(O)(CCS(=N)(=O)CC[C@H](N)C(=O)O)C(F)(F)F)cc2)c(C)o1 (stereo partly drawn) [Compound 447]	≥ 1 mM	–	–
0.02 to 2 mM	–	N=S(=O)(CC[C@H](N)C(=O)O)CCC(O)(c1ncccn1)C(F)(F)F (stereo partly drawn) [Compound 363]	< 1 mM	–	–
0.02 to 2 mM	–	Cc1cnn(C2(CCS(=N)(=O)CC[C@H](N)C(=O)O)CCC2)n1 (stereo partly drawn) [Compound 417]	< 1 mM	–	–
–	≤ 0.02 mM	N=S(=O)(CCC(c1ccc(-c2ccccc2Cl)cc1)C(F)(F)F)CC[C@H](N)C(=O)O (stereo partly drawn) [Compound 212, (2S)-2-amino-4-(3-(2′-chloro-[1,1′-biphenyl]-4-yl)-4,4,4-trifluorobutylsulfonimidoyl)butanoic acid]	–	< 1 mM	–
≤ 0.02 mM	–	N=S(=O)(CC[C@H](N)C(=O)O)CCC1(c2ncc(-c3ccc(Cl)cc3Cl)cn2)CCC1 (stereo partly drawn) [Compound 498, (2S)-2-amino-4-(2-(1-(5-(2,4-dichlorophenyl)pyrimidin-2-yl)cyclobutyl)ethylsulfonimidoyl) butanoic acid]	< 1 mM	–	–
0.02 to 2 mM	–	N=S(=O)(CC[C@H](N)C(=O)O)CCC1(C(F)(F)F)OCc2ccccc21 (stereo partly drawn) [compound 511]	< 1 mM	–	–
> 2 mM	–	CC(C)(C)OC(=O)[C@@H](N)CC[S@](=N)(=O)CC[C@H](O)C(F)(F)F [Compound 490]	≥ 1 mM	–	–
≤ 0.02 mM	–	COc1cncc(-c2ccc(C(CCS(=N)(=O)CC[C@H](N)C(=O)O)C(F)(F)F)cc2)c1 (stereo partly drawn) [Compound 242]	≥ 1 mM	–	–
≤ 0.02 mM	–	CS(=O)(=O)c1ccc(-c2ccc(C(O)(CCS(=N)(=O)CC[C@H](N)C(=O)O)C(F)(F)F)cc2)c(Cl)c1 (stereo partly drawn) [Compound 442]	≥ 1 mM	–	–
≤ 0.02 mM	–	Cc1ccc(-c2ccc(C(O)(CCS(=N)(=O)CC[C@H](N)C(=O)O)C(F)(F)F)cc2)c(C)c1 (stereo partly drawn) [Compound 438]	< 1 mM	–	–
≤ 0.02 mM	–	N=S(=O)(CC[C@H](N)C(=O)O)CCC(c1ccc(-c2ccc(Cl)cc2Cl)cc1)(C(F)(F)F)C(F)(F)F (stereo partly drawn) [compound 510]	≥ 1 mM	–	–
> 2 mM	–	N[C@@H](CCS(=O)(=O)CCC1(C(F)(F)F)OC(=O)c2ccccc21)C(=O)O (stereo partly drawn) [compound 512]	≥ 1 mM	–	–

IC50 (human recombinant GCL; [1])	IC50 (human recombinant GCL; [3])	Structure (SMILES)	EC50 (RKN cells; [2])	EC50 (RKN cells; [4])	further results
≤ 0.02 mM	–	N=S(=O)(CCC(n1ncc(-c2ccccc2)n1)C(F)(F)F)CC[C@H](N)C(=O)O (stereo partly drawn) [Compound 409]	< 1 mM	–	–
0.02 to 2 mM	–	CCCCS(=N)(=O)CC[C@H](N)C(=O)OC(C)(C)C (stereo partly drawn) [Compound 483]	≥ 1 mM	–	–
0.02 to 2 mM	–	N=S(=O)(CC[C@H](N)C(=O)O)CCC(O)(C1CC1)C(F)(F)F (stereo partly drawn) [Compound 349, (2S)-2-amino-4-(3-cyclopropyl-4,4,4-trifluoro-3-hydroxybutylsulfonimidoyl)butanoic acid]	< 1 mM	–	–
0.02 to 2 mM	–	CCC(O)(CCS(=N)(=O)CC[C@H](N)C(=O)O)C(F)(F)F (stereo partly drawn) [Compound 352]	< 1 mM	–	–
0.02 to 2 mM	–	N=S(=O)(CC[C@H](N)C(=O)O)CCC1(O)CC(F)(F)C1 (stereo partly drawn) [Compound 303]	< 1 mM	–	–
≤ 0.02 mM	–	N=S(=O)(CC[C@H](N)C(=O)O)CCC1(C(F)(F)F)CCC1 (stereo partly drawn) [Compound 296]	< 1 mM	–	–
≤ 0.02 mM	–	N=S(=O)(CC[C@@H](O)C(F)(F)F)CC[C@H](N)C(=O)O (single isomer, unassigned) [Compound 328]	< 1 mM	–	–
≤ 0.02 mM	–	N=S(=O)(CC[C@H](N)C(=O)O)CCC1(c2ccc3[nH]ncc3c2)CCC1 (stereo partly drawn) [Compound 394]	≥ 1 mM	–	–
≤ 0.02 mM	–	N=S(=O)(CCC(c1ccc(-c2cc(F)ccc2O)cc1)C(F)(F)F)CC[C@H](N)C(=O)O (stereo partly drawn) [Compound 232]	< 1 mM	–	–
≤ 0.02 mM	–	N=S(=O)(CC[C@H](N)C(=O)O)CCC(O)(c1ccc(Oc2ccccc2)cc1)C(F)(F)F (stereo partly drawn) [Compound 334]	< 1 mM	–	–
0.02 to 2 mM	–	N=S(=O)(CC[C@H](N)C(=O)O)CCC1(n2ncc(-c3cccnc3)n2)CCC1 (stereo partly drawn) [Compound 419]	≥ 1 mM	–	–
≤ 0.02 mM	–	N=S(=O)(CC[C@H](N)C(=O)O)CCC(O)(C(F)(F)F)C(F)(F)F (stereo partly drawn) [Compound 301]	< 1 mM	–	–
≤ 0.02 mM	–	N=[S@SP2](=O)(CCC(N)C(=O)O)CCC(O)(c1ccc(N[S@SP3](=O)(=O)c2ccccc2)cc1)C(F)(F)F (stereo not drawn) [compound 507]	≥ 1 mM	–	–
≤ 0.02 mM	–	N=S(=O)(CCC(n1ccc(-c2ccccc2)n1)C(F)(F)F)CC[C@H](N)C(=O)O (stereo partly drawn) [Compound 416]	≥ 1 mM	–	–
≤ 0.02 mM	–	N=[S@@](=O)(CC[C@H](N)C(=O)O)CCC1(CO)CCC1 [compound 515]	< 1 mM	–	–

Source: patent publication US20260034094A1, “COMPOSITIONS AND METHODS FOR INDUCING FERROPTOSIS” (Kojin Therapeutics, Inc., priority 2022, published 2026)
